This note sets out measurements from US11273166B2, “Methods and compositions for the treatment of obesity” (Monash University, priority 2017, dated 2022).

Residues, ends and D or L forms follow the SMILES beside them. *: point of attachment. Cbz = O=C(OCc1ccccc1)*

Common to all, as to type: in vivo, mouse
Data set [1] concerns AgRP neurons (hM4Di DREADD). As to the kind of experiment: CNO in Agrp-Ires-Cre; Npy-hrGFP mice with rAAV-hM4Di-mCherry (DREADD) in the ARC. The settings on record: CNO 1.5 mg/kg/day i.p., 14 days. From the text:
FIG. 3. TCPTP deletion in AgRP neurons or AgRP neuronal inhibition promotes WAT browning and energy expenditure. a) Body weights, b) body composition, c) energy expenditure, d) daily food intake and e) BAT Ucp-1 gene expression in 18-week-old AgRP-TC and Ptpn2^fl/fl male mice. Inguinal WAT (ingWAT) was extracted from Ptpn2^fl/fl and AgRP-TC male mice and processed for f) histology (hematoxylin and eosin: H&E) and immunohistochemistry, g) quantitative PCR and h) immunoblotting. i) Ptpn2^fl/fl and AgRP-TC and Ptpn2^fl/fl male mice were subjected to ^18F-fluoro-2-deoxy-D-glucose (^18F-FDG) positron emission tomography (PET)-computed tomography (CT). Representative images and ingWAT ^18F-FDG standard uptake values (SUV) and normalised uptake per tissue volume are shown. Ptpn2^fl/fl and AgRP-TC male mice ingWAT depots were bilaterally sham-operated or denervated with 6-ODHA and j) weekly body weights recorded and k) energy expenditure measured. l) Ptpn2^fl/fl, AgRP-TC or AgRP-TC-IR male mice were fasted overnight and administered (intraperitoneal) insulin (0.85 mU/g, 15 min) and brains extracted for ARC p-AKT immunohistochemistry. m) Energy expenditure, n) body weights and o) ingWAT weights in 14-week-old Ptpn2^fl/fl, AgRP-TC or AgRP-TC-IR male mice. p-r) IngWAT and BAT were extracted from Ptpn2^fl/fl, AgRP-TC or AgRP-TC-IR male mice for gene expression analyses or histology/immunohistochemistry. s-t) 10-week-old Npy-hrGFP; Agrp-Ires-Cre mice were bilaterally injected with rAAV-hM4Di-mCherry into the ARC. […] Representative and quantified results (means±SEM) are shown for the indicated number of mice. * for significance between Ptpn2^fl/fl and AgRP-TC mice; # for significance between treated AgRP-TC or AgRP verses AgRP-TC-IR mice.
FIG. 10. […] Representative and quantified results (means±SEM) are shown for the indicated number of mice. […]

Data set [2] deals with diet-induced obese mice. As to the kind of experiment: ICV Claramine for 10 consecutive days in 12-week high fat fed mice. The settings on record: ICV 1 and 10 μg/animal/day. The method, then: (§1) FIG. 23. CNS administration of PTP1B inhibitor (Claramine) dose dependently attenuates body weight, adiposity and food intake without regulating energy expenditure in diet-induced obese mice. […] Data were collected into 5 min time bins and are presented as percentage of total behavior. Crossover graphs indicating the point of transition from eating to resting and the dashed line represents the time bin in which groups spent an equivalent amount of time eating and resting and is represented as f) time of cross over.

Data set [3] has as its system diet-induced obese mice. As to the kind of experiment: Behavioral satiety sequence after ICV Claramine in overnight fasted high fat fed mice. To be noted: ICV 1 and 10 μg/animal. The method, then: as §1
The test system of data set [4] is 8-10-week C57BL/6 male mice. As to the kind of experiment: Intranasal RU486 or Claramine for 10 consecutive days in 8-10-week C57BL/6 male mice. The settings on record: RU486 1, 5, 10 or Claramine 1, 10 and 20 μg/animal/day.
The test system of a further data set is PTP1B levels. The data set can be described thus: ICV MG132 in fasted (24 h) mice re-fed 4 h; MBH immunoblotting for PTP1B. To be noted: ICV 2 μl 50 μM, 4 h re-feeding.
In another data set the test system is TCPTP protein in the MBH. The data set can be described thus: ICV MG132 in fasted (24 h) mice re-fed 4 h; MBH immunoblotting for TCPTP. The settings on record: ICV 2 μl 50 μM, 4 h re-feeding. As to the method: The alterations in hypothalamic TCPTP in fed and fasted mice might be a specific response to nutritional signals. To explore this, experiments were performed to determined when the hypothalamic TCPTP levels returned to the pre-fasted state, when 24 h fasted mice were re-fed for 4 h (FIG. 1a). Hypothalamic TCPTP protein, as assessed by immunoblotting MBH homogenates (FIG. 1c), or Ptpn2 expression, as assessed by real time PCR (FIG. 1d), declined to pre-fasted levels in re-fed mice. The decline in TCPTP occurred throughout the ARC (FIG. 8c). The decline in TCPTP was accompanied by increased IR and AKT phosphorylation (FIG. 1e), consistent with the potential enhancement of insulin sensitivity. Since the half-life for TCPTP protein is roughly 16 h (Bukczynska et al., 2004), we reasoned that the decline in TCPTP might reflect increased degradation. The proteasome can influence hypothalamic protein abundance in response to feeding (Sasaki et al., 2010). To test its contribution to TCPTP degradation in re-fed mice, we administered fasted (24 h) mice the proteasome inhibitor MG132 intracerebroventricularly (ICV) and assessed the influence on TCPTP protein in the MBH after 4 h of re-feeding.
(In general: In western blotting, separated proteins are transferred to a membrane and probed.)

Data set [5] deals with diet-induced obese mice. As to the kind of experiment: ICV RU486 for 10 consecutive days in 12-week high fat fed mice. To be noted: ICV 1 μg/animal. The method, then:
FIG. 16. […] 12 week high fat fed C57BL/6 male mice were mice were sham or bi-laterally denervated (6-ODHA) to prevent WAT browning and then administered the glucocorticoid antagonist RU486 intracerebroventricularly (ICV; 1 μg/animal), twice daily (9 am & […]) for 10 consecutive days. Effects on body weight and adiposity (EchoMRI and fad pad weight) were determined. WAT browning was assessed by gross morphology.
FIG. 17. A glucocorticoid antagonist promotes WAT browning and increases energy expenditure without any obvious adverse behavioral effects. […] Effects on energy expenditure (indirect calorimetry) and stereotypical behaviors were determined using the Promethion metabolic cage system.
FIG. 22. […] 12-week high fat fed C57BL/6 male mice received glucocorticoid antagonist (RU486: 0.1, 1 and 2 μg/animal/day, ICV) for 10 consecutive days and a) body weights, b) food intake, c) adiposity (EchoMRI and fad pad weight), d) energy expenditure were determined.
Insulin and glucose tolerance tests and blood glucose and plasma insulin were measured as described previously (Dodd et al., 2015 as above; Loh et al., 2009 Cell Metab 10, 260-272). Plasma corticosterone was measured by ELISA (Arbor Assays). […]
Effects on body weight and adiposity (EchoMRI and fat pad weight) were determined. […]
Effects on energy expenditure and stereotypical behaviours were determined using the Promethion metabolic cages system.

In data set [6] the test system is hypothalamic TCPTP (Ptpn2) expression. As to the kind of experiment: ICV ghrelin, UDP or dexamethasone (plus or minus RU486) in re-fed mice; hypothalamic TCPTP immunohistochemistry and Ptpn2 real time PCR. The settings on record: for TCPTP protein levels (immunohistochemistry): ICV twice over 4 h in fasted and re-fed (4 h) mice. In general terms: In qPCR the cycle at which signal appears reflects the starting amount.
Experimental: Paraformaldehyde-fixed brains were extracted and processed for TCPTP immunohistochemistry. e) 8-week-old fed or 24 h fasted C57BL/6 male mice were administered (intraperitoneal) saline, or leptin (0.5 μg/g body weight, 45 min) and paraformaldehyde-fixed brains extracted for immunohistochemistry monitoring for STAT3 Y705 phosphorylation (p-STAT3) in the central-caudal ARC. f) Tissues from 8-week-old AgRP-TC mice were screened for the presence of the recombined Ptpn2 allele (ΔPtpn2) by PCR (Wiede et al., 2011). g) 8-week-old Ptpn2^fl/fl; Npy-hrGFP or AgRP-TC; Npy-hrGFP mice were perfused with paraformaldehyde and brains extracted and processed for immunohistochemistry monitoring for TCPTP in GFP-positive AgRP/NPY neurons in the central-caudal ARC. Yellow arrows depict TCPTP positive NPY cells, blue arrows depict TCPTP negative NPY cells. h) Brains from 8-week-old fed or 24 h fasted Ptpn2^fl/fl; Npy-hrGFP or AgRP-TC; Npy-hrGFP male mice were paraformaldehyde-fixed and processed for ARC p-AKT immunohistochemistry. i-j) 8-week-old Ptpn2^fl/fl or AgRP-TC male mice were fasted and injected (intraperitoneal) with saline, insulin (0.85 mU/g) or leptin (1 μg/g body weight) and hypothalami extracted 2 h later for quantitative PCR. k) 8-week-old Ptpn2^fl/fl; Npy-hrGFP or AgRP-TC; Npy-hrGFP male mice were fasted overnight and administered vehicle PBS or leptin (0.5 μg/g body weight, intraperitoneal) for 45 min and paraformaldehyde-fixed brains extracted and processed for immunofluorescence microscopy monitoring for p-STAT3 and GFP. l) Plasma insulin levels in 8-10-week-old fed or food restricted (just prior to lights out, 6:30 μm) C57BL/6 male mice.
Under 2% (v/v) isoflurane in 1 l/min oxygen 8-week-old AgRP-TC, Ptpn2^fl/fl or C57BL/6 mice were implanted stereotaxically with guide cannulas into the right lateral ventricle (0.2 mm posterior, 1.0 mm lateral from bregma). […] Mice received a second injection 2 h later and after a further 2 h mice were perfused with paraformaldehyde for immunohistochemical analysis, or hypothalami extracted for quantitative real time PCR.

The subject of data set [7] is 20-week high fat fed C57BL/6 male mice. As to the kind of experiment: Intra-ARC infusion of TCPTP inhibitor in 20-week high fat fed mice switched to chow diet. To be noted: intra-ARC 0.5 nmol/day at 0.25 ul/h, mice placed on chow diet (9% fat). The method, then:
FIG. 18. […] 2-weeks post AAV injection mice were placed on chow diet (9% fat) and weekly body weight was monitored. b) 20-week high fat fed (23% fat) C57BL/6 male mice were implanted with bilateral intraARC cannula connected to Alzet osmotic minipumps (Alzet, 1002) and infused with vehicle or TCPTP inhibitor (compound 8 as described herein, 0.5 nmol/day at a rate of 0.25 ul/h). Mice were placed on chow diet (9% fat) and daily body weight was monitored.
2-weeks post AAV injection mice were placed on chow diet (9% fat) and weekly body weight was monitored. b) 20-week high fat fed (23% fat) C57BL/6 male mice were implanted with bilateral intra-ARC cannula connected to Alzet osmotic minipumps (Alzet, 1002) and infused with vehicle or TCPTP inhibitor (compound 8, 0.5 nmol/day at a rate of 0.25 ul/h). Mice were placed on chow diet (9% fat) and daily body weight was monitored.

Data set [8] deals with ARC PI3K/AKT signaling (p-AKT). The data set can be described thus: Insulin-induced ARC p-AKT (Ser-473) immunohistochemistry in fed or fasted mice. To be noted: insulin 0.85 mU/g i.p., 15 min.
Experimental: 4 weeks post rAAV injection mice were administered (intraperitoneal) saline or insulin (0.85 mU/g, 15 min) and paraformaldehyde-fixed brains extracted for ARC p-AKT or GFP (insert) immunohistochemistry. d) Fed or fasted Ptpn2^fl/fl or AgRP-TC male mice were administered (intraperitoneal) saline or insulin (0.85 mU/g, 15 min) and paraformaldehyde-fixed brains extracted for ARC p-AKT immunohistochemistry. e) Fed or fasted Ptpn2^fl/fl versus AgRP-TC male mice on the Npy-hrGFP reporter background processed for c-Fos ARC immunohistochemistry. f) Whole-cell patch clamp recordings of hypothalamic NPY neurons from Ptpn2^fl/fl; Npy-hrGFP versus AgRP-TC; Npy-hrGFP male mice in response to insulin. […] Representative and quantified results (means±SEM) are shown for the indicated number of mice.
Mice were injected intraperitoneally with either vehicle, leptin (0.5-1.0 μg/g; Peprotech, Rehovot, Israel) for p-STAT-3 (Y705) or human insulin (0.85 mU/g, SIGMA, St Louis, Mo.) for p-AKT (Ser-473). Mice were transcardically perfused either 15 min (for p-AKT staining) or 45 min (for p-STAT3 staining) post-injection with a solution of 4% w/v (for p-AKT staining) paraformaldehyde. The brains were post-fixed overnight and then kept for two days in 30% (w/v) sucrose in 0.1 M phosphate buffer to cryoprotect the tissue, before freezing on dry ice. […]

For the molecule `C[N+]1([O-])CCN(C2=Nc3cc(Cl)ccc3Nc3ccccc32)CC1` [CNO, clozapine-N-oxide], in data set [1], the body weights result is “decreased” and the food intake entry is “decreased”. In addition, in [1] (sham-operated vs 6-OHDA denervated inguinal fat pads), the WAT browning entry is listed as “marked WAT browning in the sham-operated, but not in the contralateral 6-OHDA denervated inguinal fat pads”.

Regarding `CC(C)CCC[C@@H](C)[C@H]1CC[C@H]2[C@@H]3C[C@@H](NCCCNCCCCNCCCN)C4C[C@@H](O)CC[C@]4(C)[C@H]3CC[C@]12C` (stereo partly drawn) [Claramine, (3β3,6β3)-6-[[3-[[4-[(3-Aminopropyl)amino]butyl]amino]propyl]amino]-cholestan-3-ol], in the data set with diet-induced obese mice [2], the “adiposity (EchoMRI and fad pad weight)” value is “dose dependent attenuation”; the body weights result is reported as “dose dependent attenuation”; the food intake result is reported as “dose dependent attenuation”. The “adverse side effects as cause of reduced food intake” value in the data set with diet-induced obese mice [3] is listed as “not by adverse side effects such as sedation or nausea”. The behavioral satiety sequence result in the data set on diet-induced obese mice [3] (overnight fasted, presented with food) was “dose dependent shift”. In data set [4], the adaptive thermogenesis entry was “dose dependent effect”, the adiposity entry was “dose dependent effect”, the body weight result is listed as “dose dependent effect” and the food intake result is given as “dose dependent effect”.

As to `CC(C)C[C@@H](C=O)NC(=O)[C@H](CC(C)C)NC(=O)[C@H](CC(C)C)NC(=O)OCc1ccccc1` [MG132] (Cbz-Leu-Leu-Leu-aldehyde), the PTP1B levels entry in the data set with PTP1B levels is “without affecting”. Besides, the “feeding-induced degradation of TCPTP” value in the data set with TCPTP protein in the MBH is “completely prevented”.

Take `CC#C[C@]1(O)CC[C@H]2[C@@H]3CCC4=CC(=O)CCC4=C3[C@@H](c3ccc(N(C)C)cc3)C[C@@]21C` [RU486, 17-beta-hydroxy-11-beta-(4-dimethyl-aminophenyl)-17-alpha(1-propynyl)-estra-4,9-dien-3-one]: in the data set on diet-induced obese mice [5], the adverse behaviours result is “not accompanied by adverse behaviours such as inactivity, hyperactivity or sedation”.

Take `O=c1ccn([C@@H]2O[C@H](COP(=O)(O)OP(=O)(O)O)[C@@H](O)[C@H]2O)c(=O)[nH]1` [UDP, uridine 5′-diphosphate]: the “TCPTP protein levels (immunohistochemistry)” value in [6] is reported as “Neither ghrelin nor UDP overtly altered”.

For `CCc1ccc(C(=O)NCCCCC(NC(=O)C(Cc2ccc(C(F)(F)P(=O)(O)O)cc2)NC(=O)C(Cc2ccccc2)NC(=O)COC2CC(C)CCC2C(C)C)C(N)=O)cc1` (stereo not drawn) [compound 8], in data set [7], the “diet-induced weight loss (daily body weight)” value is “enhances diet-induced weight loss”.

For ghrelin, the “TCPTP protein levels (immunohistochemistry)” value in data set [6] is “Neither ghrelin nor UDP overtly altered”. Moreover, in data set [6] (ICV twice over 4 h in re-fed mice, real time PCR), the “increase in Ptpn2 message” value is given as roughly 3 fold.

For insulin: human insulin (SIGMA), the “ARC p-AKT in response to insulin” value in data set [8] (24 h fasted C57BL6 mice) is reported as “only modestly increased”. For the same molecule, in data set [8] (fed C57BL6 mice), the “induction of ARC p-AKT in response to insulin” value is recorded as 3-4 fold.
